Results reported in patent publication US9518052B2, “Pyrazolopyridines and pyrazolopyrimidines” (Pfizer Inc., priority 2014, dated 2016).
Where a name gives a salt, the structure may show the parent alone.

Key:
Type in all cases: biochemical
Conditions in all cases: Caliper assay at 1 mM ATP
JAK2 = JAK2 (Homo sapiens (Human), UniProt O60674); test: JAK Caliper Enzyme Assay at 1 mM ATP (JAK2)
Protocol: (§1) JAK Caliper Enzyme Assay at 1 mM ATP
(§2) Test article was solubilized in dimethyl sulfoxide (DMSO) to a stock concentration of 30 mM. An 11-point half log dilution series was created in DMSO with a top concentration of 600 μM. […] The compound plates were diluted 1 to 60 resulting in a top final assay compound concentration of 10 μM and a 2% DMSO concentration.
(§3) Test article and assay controls were added to a 384-well plate. Reaction mixtures contained 20 mM HEPES, pH 7.4, 10 mM magnesium chloride, 0.01% bovine serum albumin (BSA), 0.0005% Tween 20, 1 mM ATP and 1 μM peptide substrate. […] Enzyme concentrations and incubation times were optimized for each new enzyme preps and were modified slightly over time to ensure 20%-30% phosphorylation. The assays were stopped with a final concentration of 10 mM EDTA, 0.1% Coating Reagent and 100 mM HEPES, pH=7.4. The assay plates were placed on a Caliper Life Science Lab Chip 3000 (LC3000) instrument, and each well was sampled using appropriate separation conditions to measure the unphosphorylated and phosphorylated peptide.

JAK1 = JAK1 (Homo sapiens (Human), UniProt P23458); test: JAK Caliper Enzyme Assay at 1 mM ATP (JAK1)
Protocol: as §1, §2, §3

TYK2 = TYK2 (Homo sapiens (Human), UniProt P29597); test: JAK Caliper Enzyme Assay at 1 mM ATP (TYK2)
Protocol: as §1, §2, §3

JAK3 = JAK3 (Homo sapiens (Human), UniProt P52333); test: JAK Caliper Enzyme Assay at 1 mM ATP (JAK3)
Protocol: as §1, §2, §3

Sequence of TYK2 (P29597 whole entry, species assumed): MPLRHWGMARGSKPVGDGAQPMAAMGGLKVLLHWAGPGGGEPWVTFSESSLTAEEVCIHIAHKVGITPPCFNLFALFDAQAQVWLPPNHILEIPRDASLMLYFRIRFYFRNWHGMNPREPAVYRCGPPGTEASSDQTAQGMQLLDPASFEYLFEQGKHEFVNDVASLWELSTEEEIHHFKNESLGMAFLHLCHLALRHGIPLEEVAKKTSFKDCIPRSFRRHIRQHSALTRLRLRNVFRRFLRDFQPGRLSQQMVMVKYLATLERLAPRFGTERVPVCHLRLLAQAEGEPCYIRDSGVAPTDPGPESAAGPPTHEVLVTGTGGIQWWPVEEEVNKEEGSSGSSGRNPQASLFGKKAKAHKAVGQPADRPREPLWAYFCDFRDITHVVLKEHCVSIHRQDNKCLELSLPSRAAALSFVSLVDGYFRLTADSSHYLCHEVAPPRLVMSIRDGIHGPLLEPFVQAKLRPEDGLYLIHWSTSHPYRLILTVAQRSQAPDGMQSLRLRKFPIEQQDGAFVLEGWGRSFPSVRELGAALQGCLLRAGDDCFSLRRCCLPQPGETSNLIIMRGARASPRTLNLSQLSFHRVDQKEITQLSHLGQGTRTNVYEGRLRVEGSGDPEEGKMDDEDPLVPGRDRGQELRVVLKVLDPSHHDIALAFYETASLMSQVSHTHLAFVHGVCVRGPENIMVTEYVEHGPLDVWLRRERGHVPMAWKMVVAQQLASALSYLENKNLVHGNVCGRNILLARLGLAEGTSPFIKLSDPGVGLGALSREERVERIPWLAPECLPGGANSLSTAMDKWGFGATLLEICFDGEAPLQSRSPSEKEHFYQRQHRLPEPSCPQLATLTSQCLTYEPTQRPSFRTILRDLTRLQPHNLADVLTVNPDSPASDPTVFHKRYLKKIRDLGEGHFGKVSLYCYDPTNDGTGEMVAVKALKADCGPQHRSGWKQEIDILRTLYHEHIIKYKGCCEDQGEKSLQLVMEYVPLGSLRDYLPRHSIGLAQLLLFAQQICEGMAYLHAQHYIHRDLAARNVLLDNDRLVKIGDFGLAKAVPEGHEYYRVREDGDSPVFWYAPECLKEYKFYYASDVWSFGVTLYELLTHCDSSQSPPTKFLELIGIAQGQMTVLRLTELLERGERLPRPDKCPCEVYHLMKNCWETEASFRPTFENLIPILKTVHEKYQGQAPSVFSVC
Sequence of JAK1 (P23458 whole entry, species assumed): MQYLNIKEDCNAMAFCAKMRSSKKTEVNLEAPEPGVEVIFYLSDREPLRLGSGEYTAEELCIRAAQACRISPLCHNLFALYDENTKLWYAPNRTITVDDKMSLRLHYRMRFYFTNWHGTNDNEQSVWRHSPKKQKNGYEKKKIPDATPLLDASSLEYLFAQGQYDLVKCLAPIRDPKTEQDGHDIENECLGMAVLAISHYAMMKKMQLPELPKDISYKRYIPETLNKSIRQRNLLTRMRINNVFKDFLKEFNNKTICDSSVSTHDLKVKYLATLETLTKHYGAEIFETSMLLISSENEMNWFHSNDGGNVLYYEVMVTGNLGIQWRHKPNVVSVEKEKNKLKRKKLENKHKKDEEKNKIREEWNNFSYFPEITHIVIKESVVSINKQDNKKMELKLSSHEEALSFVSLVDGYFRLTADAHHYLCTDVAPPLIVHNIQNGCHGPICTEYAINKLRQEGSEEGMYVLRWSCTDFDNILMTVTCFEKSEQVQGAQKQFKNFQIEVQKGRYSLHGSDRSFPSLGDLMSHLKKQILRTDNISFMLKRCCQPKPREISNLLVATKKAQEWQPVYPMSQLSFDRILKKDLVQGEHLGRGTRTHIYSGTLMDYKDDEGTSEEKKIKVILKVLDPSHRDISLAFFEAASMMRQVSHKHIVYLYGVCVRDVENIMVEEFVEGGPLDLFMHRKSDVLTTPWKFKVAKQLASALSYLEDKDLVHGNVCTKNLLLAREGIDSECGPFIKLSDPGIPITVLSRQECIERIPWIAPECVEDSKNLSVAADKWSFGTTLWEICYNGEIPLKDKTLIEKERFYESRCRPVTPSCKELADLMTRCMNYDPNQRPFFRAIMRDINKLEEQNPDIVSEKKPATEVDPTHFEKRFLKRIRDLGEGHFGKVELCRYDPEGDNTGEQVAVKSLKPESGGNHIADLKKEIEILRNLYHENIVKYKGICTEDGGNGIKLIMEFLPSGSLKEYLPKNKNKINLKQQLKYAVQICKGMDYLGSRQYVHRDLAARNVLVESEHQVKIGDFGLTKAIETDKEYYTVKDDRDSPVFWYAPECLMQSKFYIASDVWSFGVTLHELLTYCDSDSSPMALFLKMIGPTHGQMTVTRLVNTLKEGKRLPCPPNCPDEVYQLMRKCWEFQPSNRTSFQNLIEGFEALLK
Sequence of JAK2 (O60674 whole entry, species assumed): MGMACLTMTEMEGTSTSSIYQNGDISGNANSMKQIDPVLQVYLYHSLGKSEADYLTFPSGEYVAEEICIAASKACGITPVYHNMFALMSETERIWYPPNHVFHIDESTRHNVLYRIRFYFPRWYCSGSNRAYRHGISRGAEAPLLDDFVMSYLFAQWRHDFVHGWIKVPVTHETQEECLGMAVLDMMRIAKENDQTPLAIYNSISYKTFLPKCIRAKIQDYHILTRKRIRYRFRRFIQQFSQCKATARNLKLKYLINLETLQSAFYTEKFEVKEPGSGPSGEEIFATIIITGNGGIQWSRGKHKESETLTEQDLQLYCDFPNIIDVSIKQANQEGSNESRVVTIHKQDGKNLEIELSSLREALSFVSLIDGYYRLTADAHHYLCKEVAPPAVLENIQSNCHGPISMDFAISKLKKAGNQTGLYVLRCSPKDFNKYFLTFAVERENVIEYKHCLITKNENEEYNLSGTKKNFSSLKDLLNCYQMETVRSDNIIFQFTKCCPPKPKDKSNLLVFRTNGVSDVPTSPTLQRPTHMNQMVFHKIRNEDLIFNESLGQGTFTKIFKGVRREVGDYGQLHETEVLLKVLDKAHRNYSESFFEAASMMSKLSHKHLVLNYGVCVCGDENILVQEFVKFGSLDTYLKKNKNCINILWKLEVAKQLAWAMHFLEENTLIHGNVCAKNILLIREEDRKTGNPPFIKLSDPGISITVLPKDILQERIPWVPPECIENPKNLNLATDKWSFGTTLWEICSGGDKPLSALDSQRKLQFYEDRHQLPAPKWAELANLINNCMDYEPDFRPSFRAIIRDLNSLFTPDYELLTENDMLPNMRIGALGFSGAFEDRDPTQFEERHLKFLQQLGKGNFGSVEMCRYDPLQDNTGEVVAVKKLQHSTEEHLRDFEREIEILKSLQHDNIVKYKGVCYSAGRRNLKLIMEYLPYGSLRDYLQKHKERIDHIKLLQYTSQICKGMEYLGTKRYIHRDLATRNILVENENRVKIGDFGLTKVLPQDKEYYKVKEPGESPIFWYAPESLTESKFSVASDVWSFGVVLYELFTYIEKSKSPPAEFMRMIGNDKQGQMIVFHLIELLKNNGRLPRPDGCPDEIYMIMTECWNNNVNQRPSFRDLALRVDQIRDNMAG
Sequence of JAK3 (P52333 whole entry, species assumed): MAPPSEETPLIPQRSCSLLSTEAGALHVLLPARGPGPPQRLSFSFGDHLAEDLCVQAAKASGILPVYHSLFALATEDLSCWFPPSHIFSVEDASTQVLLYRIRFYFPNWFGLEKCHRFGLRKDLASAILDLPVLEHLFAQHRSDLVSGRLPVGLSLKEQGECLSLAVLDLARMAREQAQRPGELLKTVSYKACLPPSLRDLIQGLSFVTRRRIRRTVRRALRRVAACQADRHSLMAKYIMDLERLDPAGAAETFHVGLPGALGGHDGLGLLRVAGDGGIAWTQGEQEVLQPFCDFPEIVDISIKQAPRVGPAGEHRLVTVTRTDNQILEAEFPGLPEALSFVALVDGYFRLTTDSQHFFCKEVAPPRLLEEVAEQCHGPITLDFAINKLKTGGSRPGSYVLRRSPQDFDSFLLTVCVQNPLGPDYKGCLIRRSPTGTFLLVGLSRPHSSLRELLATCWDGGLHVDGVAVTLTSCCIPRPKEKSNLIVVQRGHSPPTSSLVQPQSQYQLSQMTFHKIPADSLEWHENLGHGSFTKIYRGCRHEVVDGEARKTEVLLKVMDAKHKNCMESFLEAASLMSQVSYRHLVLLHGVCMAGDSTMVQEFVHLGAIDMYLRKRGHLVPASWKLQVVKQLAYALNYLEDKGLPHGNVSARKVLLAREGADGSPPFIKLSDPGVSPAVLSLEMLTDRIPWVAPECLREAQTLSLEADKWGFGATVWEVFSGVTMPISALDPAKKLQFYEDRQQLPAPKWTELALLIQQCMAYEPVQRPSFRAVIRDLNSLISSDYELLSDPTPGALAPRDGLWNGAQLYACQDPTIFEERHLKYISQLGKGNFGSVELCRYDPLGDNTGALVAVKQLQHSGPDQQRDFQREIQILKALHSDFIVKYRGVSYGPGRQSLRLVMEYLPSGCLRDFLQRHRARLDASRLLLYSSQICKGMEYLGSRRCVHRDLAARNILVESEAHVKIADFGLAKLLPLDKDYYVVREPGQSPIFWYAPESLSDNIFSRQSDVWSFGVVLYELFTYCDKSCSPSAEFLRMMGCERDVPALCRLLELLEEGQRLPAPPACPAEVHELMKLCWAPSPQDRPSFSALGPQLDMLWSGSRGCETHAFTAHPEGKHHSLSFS

| Compound | IC50 (JAK2) | IC50 (JAK1) | IC50 (TYK2) | IC50 (JAK3) |
| --- | --- | --- | --- | --- |
| CNC(=O)c1n[nH]c2cc(-c3cc(F)c(O)cc3CC(F)(F)F)nc(NCc3cnccc3N(C)S(C)(=O)=O)c12 [Example 48, 6-[5-fluoro-4-hydroxy-2-(2,2,2-trifluoroethyl)phenyl]-N-methyl-4-[({4-[methyl(methylsulfonyl)amino]pyridin-3-yl}methyl)amino]-1H-pyrazolo[4,3-c]pyridine-3-carboxamide] | 188 nM | 67.6 nM | – | 148 nM |
| CNC(=O)c1n[nH]c2cc(-c3cc(F)c(O)cc3C3CC3)nc(NCc3cccnc3N(C)S(C)(=O)=O)c12 [Example 49, 6-(2-cyclopropyl-5-fluoro-4-hydroxyphenyl)-N-methyl-4-[({2-[methyl(methylsulfonyl)amino]pyridin-3-yl}methyl)amino]-1H-pyrazolo[4,3-c]pyridine-3-carboxamide] | 181 nM | 78 nM | – | 248 nM |
| CCc1cc(O)ccc1-c1cc2[nH]ncc2c(N2CC(Oc3cc(C#N)ccc3Cl)C2)n1 [Example 120, 4-chloro-3-({1-[6-(2-ethyl-4-hydroxyphenyl)-1H-pyrazolo[4,3-c]pyridin-4-yl]azetidin-3-yl}oxy)benzonitrile formate] | 128 nM | 10.8 nM | – | 89.2 nM |
| CCc1cc(O)ccc1-c1cc2[nH]ncc2c(NCc2c(C)cccc2N(C)S(C)(=O)=O)n1 [Example 127, N-[2-({[6-(2-ethyl-4-hydroxyphenyl)-1H-pyrazolo[4,3-c]pyridin-4-yl]amino}methyl)-3-methylphenyl]-N-methylmethanesulfonamide diethylamine salt] | 14.9 nM | 6 nM | 625 nM | – |
| CCc1cc(O)ccc1-c1cc2[nH]ncc2c(N2CCC(OC)CC2)n1 [Example 128, 3-ethyl-4-[4-(4-methoxypiperidin-1-yl)-1H-pyrazolo[4,3-c]pyridin-6-yl]phenol diethylamine salt] | 12.6 nM | 3.6 nM | 514 nM | – |
| CCc1cc(O)c(F)cc1-c1cc2[nH]ncc2c(N(CCN2CCOCC2)Cc2ccccc2N(C)S(C)(=O)=O)n1 [Example 140, N-[2-({[6-(2-ethyl-5-fluoro-4-hydroxyphenyl)-1H-pyrazolo[4,3-c]pyridin-4-yl][2-(morpholin-4-yl)ethyl]amino}methyl)phenyl]-N-methylmethanesulfonamide] | 53.5 nM | 18.1 nM | – | 131 nM |
| Oc1cc(CC(F)(F)F)c(-c2nc(NCCC3CC3)c3cn[nH]c3n2)cc1F [Example 152, 4-{4-[(2-cyclopropylethyl)amino]-1H-pyrazolo[3,4-d]pyrimidin-6-yl}-2-fluoro-5-(2,2,2-trifluoroethyl)phenol] | 228 nM | 41.6 nM | – | 157 nM |

Continued, values first:

| IC50 (JAK2) | IC50 (JAK1) | IC50 (TYK2) | IC50 (JAK3) | Compound |
| --- | --- | --- | --- | --- |
| 38.1 nM | 8 nM | 36.5 nM | 177 nM | CCN(c1ccccc1CNc1nc(-c2cc(F)c(O)cc2CC(F)(F)F)cc2[nH]nc(C(=O)NC)c12)S(=O)(=O)CC [Example 1, 4-({2-[Ethyl(ethylsulfonyl)amino]benzyl}amino)-6-[5-fluoro-4-hydroxy-2-(2,2,2-trifluoroethyl)phenyl]-N-methyl-1H-pyrazolo[4,3-c]pyridine-3-carboxamide] |
| 17 nM | 3.4 nM | 12.1 nM | 84.5 nM | CCc1cc(O)c(F)cc1-c1cc2[nH]nc(C(=O)NC)c2c(NCc2ccccc2N(CC)S(=O)(=O)CC)n1 [Example 2, 4-({2-[ethyl(ethylsulfonyl)-amino]benzyl}amino)-6-(2-ethyl-5-fluoro-4-hydroxyphenyl)-N-methyl-1H-pyrazolo[4,3-c]pyridine-3-carboxamide] |
| 16.7 nM | – | 1990 nM | 27.5 nM | CCCCN(c1ccccc1CNc1nc(-c2cc(F)c(O)cc2CC)cc2[nH]ncc12)S(C)(=O)=O [Example 139] |
| 2.6 nM | – | 4.8 nM | 14.2 nM | N-ethyl-N-[2-({[6-(2-ethyl-5-fluoro-4-hydroxyphenyl)-1H-pyrazolo[4,3-c]pyridin-4-yl]amino}methyl)phenyl]ethanesulfonamide [Example 138] |
